Here are results for 61 compounds from US12534456B2, “Heterocyclyl pyridines as novel fungicides” (Bayer Aktiengesellschaft, priority 2020, dated 2026).

A word on the chromatographic logP: it is lipophilicity estimated from chromatographic retention.

The first data set in a line: physchem. It counts as physicochemical.
Conditions: not given
Here is the method: Measurement of Log P values as provided herein was performed according to EEC directive 79/831 Annex V.A8 by HPLC (High Performance Liquid Chromatography) on reversed phase columns with the following methods: • ^[a]
If more than one Log P value is available within the same method, all the values are given and separated by “+”.
Lambda-max-values were determined using UV-spectra from 200 nm to 400 nm and the peak values of the chromatographic signals
With `ON=C(NC(CCl)Cc1ccc(C(F)(F)F)cc1Cl)c1cc(Cl)ncc1Oc1cccc(C(F)(F)F)c1` (stereo not shown) [16-09], the LogP is 4.97^[a]. For the compound `ON=C(NC(CCl)Cc1csc(C(F)(F)F)c1)c1cc(Cl)ncc1Oc1cccc(C(F)(F)F)c1` (stereo not shown) [16-10], the LogP is 4.59^[a]. Still for that read-out and setting: the result for `ON=C(NC(CCl)Cc1csc(Cl)c1)c1cc(Cl)ncc1Oc1cccc(C(F)(F)F)c1` (stereo not shown) [16-11] reads 4.48^[a]; that for `Cc1ccc(C(CCl)NC(=NO)c2cc(Cl)ncc2Oc2cccc(C(F)(F)F)c2)cc1` (stereo not shown) [16-12], 4.19^[a]; that for `Cc1ccc(CC(CCl)NC(=O)c2cc(Cl)ncc2Br)c(Cl)c1` (stereo not shown) [17-02], 3.94^[a].

On to `COc1cc(C(=O)NC(CCl)Cc2ccc(C)cc2Cl)c(Br)cn1` (stereo not shown) [17-03], for which the LogP was 3.94^[a]. Turning to `Cc1cc(Cl)ccc1CC(CCl)NC(=O)c1cc(Cl)ncc1Br` (stereo not shown) [17-04], the LogP is 3.98^[a]. The same measure, in the same setting: to `Cc1cccc(CC(CCl)NC(=O)c2cc(Cl)ncc2Br)c1Cl` (stereo not shown) [17-05] belongs 3.97 ^[a]; to `Cc1ccc(CC(CCl)NC(=NO)c2cc(Cl)ncc2Br)c(Cl)c1` (stereo not shown) [18-02], 3.85^[a]; to `COc1cc(C(=NO)NC(CCl)Cc2ccc(C)cc2Cl)c(Br)cn1` (stereo not shown) [18-03], 4.12^[a]. For the compound `O=C(O)c1c(Oc2cccc(C(F)(F)F)c2)cnc(Cl)c1F` [Compound 1-01], the LogP was 2.28^[a]. For `CC(=O)c1cc(C(=O)O)c(Oc2cccc(C(F)(F)F)c2)cn1` [Compound 1-02], the LogP is 2.54^[a]. Still for that read-out and setting: to `COC(=O)c1cc(C#C[Si](C)(C)C)ncc1Oc1cccc(C(F)(F)F)c1` [Compound 1-03] belongs 5.35^[a]; to `COC(=O)c1cc(C(C)=O)ncc1Oc1cccc(C(F)(F)F)c1` [Compound 1-04], 3.59^[a]. `C=C(OCC)c1cc(C(=O)OC)c(Oc2cccc(C(F)(F)F)c2)cn1` [Compound 1-05]: the LogP is 4.70^[a].

For `O=C(O)c1cc(Cl)ncc1Oc1cccc(C2CC2)c1F` [Compound 1-06], the LogP was 2.97^[a]. On the same count and under the same terms, the result for `Cc1cccc(Oc2cnc(Cl)cc2C(=O)O)c1` [Compound 1-08] reads 2.60^[a]; that for `COc1cccc(Oc2cnc(Cl)cc2C(=O)O)c1` [Compound 1-09], 2.34^[a]. On the same count and under the same terms, the result for `O=C(O)c1cc(Cl)ncc1Oc1cccc(C(F)F)c1` [Compound 1-10] reads 2.48^[a]; that for `O=C(O)c1cc(Cl)ncc1Oc1cccc(Cl)c1` [Compound 1-11], 2.76^[a]. In the case of `O=C(O)c1cc(Cl)ncc1Oc1cccc(C2CC2)c1` [Compound 1-12], the LogP was 2.87^[a]. In the case of `O=C(O)c1cc(Cl)nc(F)c1Oc1cccc(C(F)(F)F)c1` [Compound 1-14], the LogP is 2.95^[a]. On the same count and under the same terms, the result for `COc1cc(C(=O)O)c(Oc2cccc(C(F)(F)F)c2)cn1` [Compound 1-15] reads 2.86^[a]; that for `O=C(O)c1c(Oc2cccc(C(F)(F)F)c2)cnc(Cl)c1I` [Compound 1-17], 2.49^[a]; that for `Cc1ccc(CC(CON2C(=O)c3ccccc3C2=O)NC(=O)OC(C)(C)C)c(Cl)c1` (stereo not shown) [Compound 2-05], 4.41^[a]. On the same count and under the same terms, the result for `Cc1ccc(CC(CON)NC(=O)c2cc(Cl)ncc2Br)c(C)c1` (stereo not shown) [Compound 6-01] reads 2.20^[a]; that for `Cc1ccc(CC(CON2C(=O)c3ccccc3C2=O)NC(=O)c2cc(Cl)ncc2Br)c(C)c1` (stereo not shown) [Compound 6-02], 4.13^[a].

On to `OC1CON=C(c2cc(Cl)ncc2Oc2cccc(C(F)(F)F)c2)N1` (stereo not shown) [Compound 32-01], for which the LogP is 2.11^[a]. The same measure, in the same setting: the result for `Cc1ccc(CC2CON=C(c3c(Oc4cccc(C(F)(F)F)c4)cnc(Cl)c3I)N2)c(C)c1` (stereo not shown) [Compound I-077] reads 4.66^[a]; that for `Clc1ccc(CC2CON=C(c3cc(Cl)ncc3Oc3ccc4c(c3)CCO4)N2)c(Cl)c1` (stereo not shown) [Compound I-130], 4.30^[a].

As for `C=CC(C)Nc1c(Cl)ncc(Oc2cccc(C(F)(F)F)c2)c1C1=NOCC(Cc2ccc(C)cc2C)N1` (stereo not shown) [Compound I-131], the LogP is 5.19^[a]. The same measure, in the same setting: to `Cc1ccc(CC2CON=C(c3cc(Cl)ncc3Oc3cccc(N(C)C)c3)N2)c(C)c1` (stereo not shown) [Compound I-132] belongs 4.47^[a]; to `Cc1ccc(CC2CON=C(c3c(Oc4cccc(C(F)(F)F)c4)cnc(Cl)c3-c3ccccc3)N2)c(C)c1` (stereo not shown) [Compound I-133], 5.04^[a].

Turning to `CC(=O)Oc1cccc(Oc2cnc(Cl)cc2C2=NOCC(Cc3ccc(C)cc3C)N2)c1` (stereo not shown) [Compound I-134], the LogP was 3.90^[a]. For `Cc1cccc(Oc2cnc(Cl)cc2C2=NOCC(Cc3ccc(Cl)cc3Cl)N2)c1F` (stereo not shown) [Compound I-135], the LogP was 4.75^[a]. As to `Cc1ccc(CC2CON=C(c3cc(Cl)ncc3Oc3cccc(C)c3F)N2)c(Cl)c1` (stereo not shown) [Compound I-136], the LogP is 4.66^[a]. For `Oc1cc(C2=NOCC(Cc3ccc(Br)cc3Cl)N2)c(Oc2cccc(C(F)F)c2)cn1` (stereo not shown) [Compound I-137], the LogP was 4.56^[a]. On the same count and under the same terms, the result for `FC(F)(F)c1cccc(Oc2cnc(Cl)cc2C2=NOCC(Cc3csc(Cl)c3)N2)c1` (stereo not shown) [Compound I-138] reads 4.38^[a]. On the same count and under the same terms, to `Cc1ccc(CC2CON=C(c3cc(Cl)ncc3Oc3cnc4c(c3)CCC4)N2)c(C)c1` (stereo not shown) [Compound I-140] belongs 3.17^[a]; to `CCc1cccc(Oc2cnc(Cl)cc2C2=NOCC(Cc3ccc(Cl)cc3Cl)N2)c1F` (stereo not shown) [Compound I-141], 5.16^[a]; to `CCOc1cccc(Oc2cnc(Cl)cc2C2=NOCC(Cc3ccc(C)cc3C)N2)c1` (stereo not shown) [Compound I-142], 4.59^[a].

Regarding `Cc1ccc(CC2CON=C(c3cc(Cl)ncc3Oc3cccc(Cl)c3F)N2)c(C)c1` (stereo not shown) [Compound I-144], the LogP was 4.59^[a]. The same measure, in the same setting: the result for `FC(F)(F)c1cccc(Oc2cnc(Cl)cc2C2=NOCC(Cc3cc(Cl)sc3Cl)N2)c1` (stereo not shown) [Compound I-145] reads 4.83^[a]; that for `Cc1ccc(C2CCON=C(c3cc(Cl)ncc3Oc3cccc(C(F)(F)F)c3)N2)cc1` (stereo not shown) [Compound I-146], 2.06^[a]; that for `COc1cccc(Oc2cnc(Cl)cc2C2=NOCC(Cc3ccc(C)cc3C)N2)c1F` (stereo not shown) [Compound I-147], 4.06^[a].

Regarding `FC(F)(F)Oc1cccc(Oc2cnc(Cl)cc2C2=NOCC(Cc3ccc(Cl)cc3Cl)N2)c1` (stereo not shown) [Compound I-148], the LogP is 4.88^[a]. Still for that read-out and setting: the result for `Fc1c(Oc2cnc(Cl)cc2C2=NOCC(Cc3ccc(Cl)cc3Cl)N2)cccc1OC(F)(F)F` (stereo not shown) [Compound I-149] reads 4.88^[a]. Regarding `Cc1ccc(CC2CON=C(c3c(Oc4cccc(C(F)(F)F)c4)cnc(Cl)c3C3CC3)N2)c(C)c1` (stereo not shown) [Compound I-150], the LogP is 4.70^[a]. The same measure, in the same setting: to `Cc1cccc(CC2CON=C(c3cc(Cl)ncc3Oc3cccc(Cl)c3F)N2)c1Cl` (stereo not shown) [Compound I-151] belongs 4.62^[a]; to `COc1cc(C2=NOCC(Cc3ccc(C)cc3C)N2)c(Oc2cccc(C(F)(F)F)c2)cn1` (stereo not shown) [Compound I-152], 4.55^[a]; to `COCc1cccc(Oc2cnc(Cl)cc2C2=NOCC(Cc3ccc(C)cc3C)N2)c1` (stereo not shown) [Compound I-153], 4.10^[a]. On the same count and under the same terms, the result for `CSc1cccc(Oc2cnc(Cl)cc2C2=NOCC(Cc3ccc(C)cc3C)N2)c1F` (stereo not shown) [Compound I-154] reads 4.47^[a]; that for `COc1ccc(C2CCON=C(c3cc(Cl)ncc3Oc3cccc(C(F)(F)F)c3)N2)cc1` (stereo not shown) [Compound I-155], 1.90^[a]; that for `C#Cc1ccc(CC2CON=C(c3cc(Cl)ncc3Oc3cccc(C(F)(F)F)c3)N2)c(C)c1` (stereo not shown) [Compound I-156], 4.08^[a].

Regarding `Cc1cccc(C2CON=C(c3cc(Cl)ncc3Oc3cccc(C(F)(F)F)c3)N2)c1C` (stereo not shown) [Compound I-157], the LogP was 4.23^[a]. Still for that read-out and setting: the result for `Cc1cc(Br)ccc1CC1CON=C(c2cc(Cl)ncc2Oc2cccc(C(F)(F)F)c2)N1` (stereo not shown) [Compound I-158] reads 4.81^[a].

Staying with this data set, now noted: Table 3, compounds of formula (1); method [a]: LC-UV, acidic range, 0.1% formic acid in water and acetonitrile.
Turning to `COC(=O)c1cc(Cl)ncc1Oc1cccc(C(F)(F)F)c1` [Compound 1-07, methyl 2-chloro-5-[3-(trifluoromethyl)phenoxy]isonicotinate], the chromatographic logP came to 3.84. With `O=C(O)c1cc(Cl)ncc1Oc1cccc(C(F)(F)F)c1` [Compound 1-13, 2-chloro-5-[3-(trifluoromethyl)phenoxy]isonicotinic acid], the chromatographic logP was found to be 2.84.

Staying with this data set, now noted: Table 15, compounds of formula (9); method [a]: LC-UV, acidic range, 0.1% formic acid in water and acetonitrile.
`N#Cc1cc(Cl)ncc1Oc1cccc(C(F)(F)F)c1` [Compound 9-01, 2-chloro-5-[3-(trifluoromethyl)phenoxy]isonicotinonitrile]: the chromatographic logP was 3.77.

The data set is the same for the next values; noted with them: Table 17, compounds of formula (10); method [a]: LC-UV, acidic range, 0.1% formic acid in water and acetonitrile.
`NC(=NO)c1cc(Cl)ncc1Oc1cccc(C(F)(F)F)c1` [Compound 10-01, 2-chloro-N′-hydroxy-5-[3-(trifluoromethyl)phenoxy]pyridine-4-carboximidamide]: the chromatographic logP turned out to be 2.41.

The data set is the same for the next values; noted with them: Table 17, compounds of formula (12); method [a]; several values joined by + in some cells.
On to `COc1ccc(C(=O)C(F)(F)ON=C(N)c2cc(Cl)ncc2Oc2cccc(C(F)(F)F)c2)cc1` [Compound 12-09, 2-chloro-N′-[1,1-difluoro-2-(4-methoxyphenyl)-2-oxoethoxy]-5-[3-(trifluoromethyl)phenoxy]pyridine-4-carboximidamide], for which the chromatographic logP was determined as 3.65.
